Results: patent publication US12551482B2, “Aurora kinase inhibitors” (The Regents of the University of California, priority 2013, dated 2026)
pEC50: −log10 of the molar value.

What was measured:
TT = assay: Cancer cell line profiling, Genomics of Drug Sensitivity Project; format: cell-based; details: Homo sapiens, read-out: CD532 EC50 (uM), Thyroid
[1] = test system: SK-N-BE(2) MYCN-amplified neuroblastoma cells; assay: Viability at 72 hrs, CyQUANT assay; format: cell-based; details: Homo sapiens, SKNBE2, SK-N-BE(2) cells, FIG. 1E, read-out: cellular EC50 at 72 hrs
Experimental: For viability studies, neuroblastoma cells were plated in 96-well plates at a density of 1,000 cells/well for SHEP or 4,000 cells/well for Kelly or SK—N-BE2 cells, then incubated with indicated concentrations of drug for 72 hours at 37° C. Plates were frozen at −80° C. to induce cell lysis. CyQUANT reagent mixture (Invitrogen, C7026) was added to thawed plates, then fluorescence was measured. Alternatively, resazurin (Sigma-Aldrich, R7017) was added directly to wells following drug treatment then incubated for 4 hours at 37° C. prior to measuring fluorescence. Data was analyzed using GraphPad Prism software.

MYCN [2] = assay: MYCN protein by immunoblot in SHEP cells expressing MYCN; format: cell-based
Experimental: Neuroblastoma tumor cell lines were obtained from the University of California San Francisco Cell Culture Facility (Kelly, SK-N-BE2, and SH-EP). SMS-KCN, SHEP MYCN^wt and MYCN^T58A/S62A cells were obtained. All cells were grown in RPMI with 10% FBS. Neuroblastoma cells were harvested and lysed with Cell Signaling Lysis buffer+1% SDS, sonicated and supernatants boiled in LDS sample buffer (Invitrogen). Western blots were performed as described previously (Chanthery et al., 2012), with primary antibodies to MYCN (ab24193, Abcam), Histone H3, P-Histone H3 (S10), Aurora A (Cell signaling), and GAPDH (Millipore). Western blot quantitation performed with ImageJ software.
MYCN is believed to be sequentially phosphorylated at S62/T58 before it is targeted for degradation by ubiquitination, and only phosphorylated, ubiquitinated MYCN is protected from degradation by Aurora A (Gustafson and Weiss, 2010; Otto et al., 2009).

[3] = biological target: T1, c-MYC/Aurora A interaction (Homo sapiens, UniProt O14965); assay: Immunoprecipitation of c-MYC and immunoblotting for Aurora A; format: cell-based; details: RKO colon cancer cell line
T1 construct: endogenous in cells; host or cells: RKO colon cancer cell line

MYCN [4] = assay: MYCN-amplified neuroblastoma xenografts, MYCN protein in tumors; format: in vivo; details: mice treated daily for 2 days with 60 mg/kg
Experimental: Mice were injected intraperitoneally as described. For determining tumor volume, for example in medulloblastoma model mice, mice were euthanized once maximum tumor length exceeded 2.0 cm, per IACUC protocol (IACUC, Institutional Animal Care and Use Committee).

tumor-derived cell lines = assay: Screen of panel of tumor-derived, genetically characterized cell lines; format: cell-based
WM-115 = assay: Cancer cell line profiling, Genomics of Drug Sensitivity Project; details: Homo sapiens, WM-115, read-out: CD532 EC50 (uM)
COLO-800 = assay: as above; details: Homo sapiens, COLO-800, read-out: CD532 EC50 (uM)
MEL-JUSO = assay: as above; details: Homo sapiens, read-out: CD532 EC50 (uM)
SK-MEL-1 = assay: as above; details: Homo sapiens, SK-MEL-1, read-out: CD532 EC50 (uM)
SK-MEL-3 = assay: as above; details: Homo sapiens, SK-MEL3, read-out: CD532 EC50 (uM)
SK-MEL-30 = assay: as above; details: Homo sapiens, SK-MEL-30, read-out: CD532 EC50 (uM)
MEWO = assay: as above; details: Homo sapiens, read-out: CD532 EC50 (uM)
AGS = assay: as above; details: Homo sapiens, read-out: CD532 EC50 (uM)
23132/87 = assay: as above; details: read-out: CD532 EC50 (uM)
PE/CA-PJ15 = assay: as above; details: read-out: CD532 EC50 (uM)
Ca9-22 = assay: as above; details: Homo sapiens, Ca9-22, read-out: CD532 EC50 (uM)
SK-HEP-1 = assay: as above; details: Homo sapiens, SK-HEP1, read-out: CD532 EC50 (uM)
JHH-4 = assay: as above; details: JHH-4, read-out: CD532 EC50 (uM)
JHH-6 = assay: as above; details: read-out: CD532 EC50 (uM)
A253 = assay: as above; details: Homo sapiens, A253, read-out: CD532 EC50 (uM)
ACN = assay: as above; details: read-out: CD532 EC50 (uM)
BB30-HNC = assay: as above; details: read-out: CD532 EC50 (uM)
LS-123 = assay: as above; details: Homo sapiens, LS-123, read-out: CD532 EC50 (uM)
MZ2-MEL. = assay: as above; details: read-out: CD532 EC50 (uM)
RL95-2 = assay: as above; details: Homo sapiens, RL95-2, read-out: CD532 EC50 (uM)
SH-4 = assay: as above; details: Homo sapiens, SH-4, read-out: CD532 EC50 (uM)
EFO-21 = assay: as above; details: Homo sapiens, EFO-21, read-out: CD532 EC50 (uM)

T1 sequence (O14965 whole entry): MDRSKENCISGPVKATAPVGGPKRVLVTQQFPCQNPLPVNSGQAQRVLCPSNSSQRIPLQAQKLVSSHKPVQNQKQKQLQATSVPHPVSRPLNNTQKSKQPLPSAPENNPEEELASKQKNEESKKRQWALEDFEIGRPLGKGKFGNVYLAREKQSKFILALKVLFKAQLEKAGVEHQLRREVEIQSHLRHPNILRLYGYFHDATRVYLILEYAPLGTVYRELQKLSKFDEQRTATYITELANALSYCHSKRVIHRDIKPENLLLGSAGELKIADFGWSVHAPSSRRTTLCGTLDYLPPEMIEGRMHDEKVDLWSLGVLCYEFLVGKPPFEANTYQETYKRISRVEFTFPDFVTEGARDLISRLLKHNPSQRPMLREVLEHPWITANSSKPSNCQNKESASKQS

O=C(Nc1ccc(Nc2nccc(Nc3cc(C4CCCC4)[nH]n3)n2)cc1)Nc1cccc(C(F)(F)F)c1 [CD532, 1-(4-((4-((5-cyclopentyl-1H-pyrazol-3-yl)amino)pyrimidin-2-yl)amino)phenyl)-3-(3-(trifluoromethyl)phenyl)urea]
EC50 (TT): 0.972 µM | pEC50 [1]: 6.65 | wild-type MYCN protein (MYCN [2]; SHEP cells expressing MYCNWT, 24 hrs, increasing concentrations (FIG. 12C)): dose-dependent decrease in wild-type MYCN protein | MYCNT58A/S62A protein (MYCN [2]; SHEP cells expressing non-phosphorylatable MYCNT58A/S62A, 24 hrs (FIG. 12C)): partially protected from degradation | c-MYC association with Aurora A [3]: reduces this interaction | MYCN protein in tumors (MYCN [4]): decreased levels of MYCN protein | susceptibility of MYCN amplified vs non-amplified cell lines (tumor-derived cell lines; Wilcoxon Rank Sum test): significantly more susceptible to CD532 than non-amplified lines | EC50 values across the panel (tumor-derived cell lines; most cell lines): nanomolar range | EC50 (WM-115): 0.412 µM | EC50 (COLO-800): 0.302 µM | EC50 (MEL-JUSO): 0.783 µM | EC50 (SK-MEL-1): 0.649 µM | EC50 (SK-MEL-3): 0.567 µM | EC50 (SK-MEL-30): 0.323 µM | EC50 (MEWO): 1.46 µM | EC50 (AGS): 0.346 µM | EC50 (23132/87): 0.471 µM | EC50 (PE/CA-PJ15): 1.9 µM | EC50 (Ca9-22): 0.705 µM | EC50 (SK-HEP-1): 1.6 µM | EC50 (JHH-4): 1.35 µM | EC50 (JHH-6): 1.24 µM | EC50 (A253): 24.5 µM | EC50 (ACN): 0.884 µM | EC50 (BB30-HNC): 0.462 µM | EC50 (LS-123): 0.861 µM | EC50 (MZ2-MEL.): 0.434 µM | EC50 (RL95-2): 0.335 µM | EC50 (SH-4): 0.783 µM | EC50 (EFO-21): 1.87 µM
